Measurements published in patent US9623012B2, “Formulation comprising benzothiazolone compound” (priority 2013, dated 2017).
pEC50: −log10 of the molar value. Counter-ions that a name gives are not always drawn.

Legend:
human 5-HT2C receptor = biological target: T1, human 5-HT2C receptor (Homo sapiens, UniProt P28335); test: 3H-Mesulergine binding to hr5-HT2C CHO cell membranes; conditions: 3H-Mesulergine 1 nM, kind of constant not given
T1 construct: purchased Biosignal Packard, USA; host or cells: CHO cell membranes
T1 sequence (P28335 33-458): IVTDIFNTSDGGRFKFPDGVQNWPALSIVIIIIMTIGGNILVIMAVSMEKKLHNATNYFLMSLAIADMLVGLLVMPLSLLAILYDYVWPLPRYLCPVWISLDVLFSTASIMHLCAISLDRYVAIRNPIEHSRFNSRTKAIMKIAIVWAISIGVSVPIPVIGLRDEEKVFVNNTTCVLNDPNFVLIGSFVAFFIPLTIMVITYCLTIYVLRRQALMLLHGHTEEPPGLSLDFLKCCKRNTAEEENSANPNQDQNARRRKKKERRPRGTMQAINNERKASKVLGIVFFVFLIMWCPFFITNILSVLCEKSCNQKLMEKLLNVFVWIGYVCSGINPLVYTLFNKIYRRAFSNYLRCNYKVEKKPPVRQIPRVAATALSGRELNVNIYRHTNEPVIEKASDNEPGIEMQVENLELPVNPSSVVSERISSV
Experimental: Non-specific binding is evaluated in the presence of 1 μM Mesulergine. Fifty μL each of membrane, ligand and compound in a total volume of […] are incubated in 96-well plates for 60 min at 22° C. in a buffer containing 50 mM Tris, 0.1% ascorbic acid, 10 μM Pargyline, pH 7.7. The plates are filtrated, washed 3 times in ice-cold 50 mM Tris, dried and measured in Topcount.

[1] = biological target: T2, Serotonin 5-HT2C receptor (Homo sapiens, UniProt P28335); test: Aequorin agonist assay in CHO-K1 cells expressing Serotonin 5-HT2C; type: cell-based; conditions: aequorin luminescence, agonist mode
T2 construct: expressed in transfected cells; host or cells: CHO-K1 cells coexpressing mitochondrial apoaequorin and Gα16
T2 sequence (P28335 33-458): T1 sequence (P28335 33-458)
Experimental: CHO-K1 cells coexpressing mitochondrial apoaequorin, recombinant Serotonin 5-HT2Cne and the promiscuous G protein Gα16, grown to mid-log phase in culture media without antibiotics were detached with PBS-EDTA, centrifuged and resuspended in assay buffer (DMEM/HAM's F12 with HEPES, without phenol red+0.1% BSA protease free) at a concentration of 1×10^6 cells/ml. Cells were incubated at room temperature for at least 4 h with coelenterazine h. […] For agonist testing, 50 μL of cell suspension were mixed with 50 μL of test or reference agonist in a 96-well plate. The resulting emission of light is recorded using Hamamatsu Functional Drug Screening System 6000 (FDSS 6000) luminometer. Agonist activity of test compound was expressed as a percentage of the activity of the reference agonist at its EC100 concentration.

[2] = biological target: human β2 adrenoceptor (β2 AR) (Homo sapiens, UniProt P07550); test: cAMP response in CHO cells stably transfected with human β2 adrenoceptor (Test 1)
human β2 adrenoceptor (β2 AR), sequence (P07550 whole entry): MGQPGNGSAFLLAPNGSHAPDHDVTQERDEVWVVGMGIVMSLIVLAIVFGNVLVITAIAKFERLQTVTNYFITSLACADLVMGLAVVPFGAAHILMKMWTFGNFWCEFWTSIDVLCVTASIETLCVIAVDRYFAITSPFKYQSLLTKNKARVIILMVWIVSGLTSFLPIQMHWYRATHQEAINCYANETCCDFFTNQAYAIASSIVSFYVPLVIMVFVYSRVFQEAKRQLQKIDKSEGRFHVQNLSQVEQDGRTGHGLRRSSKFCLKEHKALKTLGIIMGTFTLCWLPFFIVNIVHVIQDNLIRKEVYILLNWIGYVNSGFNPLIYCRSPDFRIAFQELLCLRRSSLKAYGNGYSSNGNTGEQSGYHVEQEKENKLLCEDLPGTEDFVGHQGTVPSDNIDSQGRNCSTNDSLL

[3] = biological target: human β1 adrenoceptor (β1 AR) (Homo sapiens, UniProt P08588); test: cAMP response in CHO cells stably transfected with human β1 adrenoceptor (Test 1)
human β1 adrenoceptor (β1 AR), sequence (P08588 whole entry): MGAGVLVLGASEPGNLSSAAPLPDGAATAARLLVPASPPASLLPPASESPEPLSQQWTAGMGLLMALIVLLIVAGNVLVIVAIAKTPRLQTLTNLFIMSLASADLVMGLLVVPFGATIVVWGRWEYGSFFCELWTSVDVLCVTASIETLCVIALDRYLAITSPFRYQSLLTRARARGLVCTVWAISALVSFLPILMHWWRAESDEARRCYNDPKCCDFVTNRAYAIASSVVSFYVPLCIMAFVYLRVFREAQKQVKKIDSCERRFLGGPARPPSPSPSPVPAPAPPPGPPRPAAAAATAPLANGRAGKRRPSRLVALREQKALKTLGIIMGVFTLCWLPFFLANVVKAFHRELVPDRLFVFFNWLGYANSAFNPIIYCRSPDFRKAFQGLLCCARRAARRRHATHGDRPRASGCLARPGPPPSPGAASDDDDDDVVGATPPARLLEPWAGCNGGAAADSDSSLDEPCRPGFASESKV

[4] = Comparative solubility in H2O with pH adjustment; type: physicochemical
Experimental: The relative solubilities of the free base form and the acetate and glycolate salt forms of Compound A were analysed and the results are show in the table below. Solutions were titrated with addition of HCl or NaOH for pH adjustment. The improved aqueous solubilities of the acetate and glycolate salt forms relative to the free base form of Compound A make the acetate and glycolate salts of Compound A more suitable for subcutaneous injection or infusion.

Male Wistar Han IGS rats = type: in vivo; conditions: rat, s.c. minipump 4 weeks; formoterol 0.003-0.03, Compound A 0.01-0.1 mg/kg/day
Experimental: Male Wistar Han IGS (International Genetic Standard) rats (Crl:WI(Han)) at the weight of 350-400 g were purchased from Charles River Laboratories. Rats were acclimated to the facility for 7 days. Animals were housed in groups of 3 animals at 25° C. with a 12:12 h light-dark cycle. They were fed a standard laboratory diet containing 18.2% protein and 3.0% fat with an energy content of 15.8 MJ/kg (NAFAG 3890, Kliba, Basel, Switzerland). Food and water were provided ad libitum. […] Pumps were filled with the solution and kept for several hours at 37° C. in PBS until surgical implantation. Rats were treated subcutaneously with Temgesic at a dose of 0.02 mg/kg with a volume of 1 ml/kg at least 30 minutes before surgery, and then the pumps filled with the solution indicated above were implanted subcutaneously into the back of the rats under anesthesia with isoflurane at a concentration of 3%. Temgesic was administered subcutaneously to the rats 24 h and 48 h after the surgery. Body weights were measured twice per week. Clips were removed 10 days after the surgery under anesthesia. Four weeks after the treatment, the rats were euthanized with CO2, and the tibialis anterior, gastrocnemius and soleus muscles, heart and brain were dissected and weighed. Brain weight was used for normalization of organ weights. Results are expressed as mean +/−SEM. […]

[5] = system: left atria from Dunkin Hartley Guinea pig; test: Left atrium contraction assay (Ricerca, Adrenergic beta1)
Wistar Han rats = test: Heart rate in vivo in rats after s.c. bolus; conditions: rat, s.c. bolus up to 0.3 mg/kg
Description: Wistar Han (W-H) IGS (International Genetic Standard) rats (Crl:WI(Han)) were purchased from Charles River Laboratories. Femoral arterial and venous catheters were chronically implanted and exteriorized through a spring tether-swivel system and housed in specialized cages. Arterial catheter was connected to a pressure transducer to continuously measure pulse pressure, mean arterial pressure and heart rate, which was derived from the blood pressure signal, via a digital data acquisition system. Compounds were administered via s.c catheter implanted through the skin buttun. Values are expressed as means±SEM (n=3).

Rhesus monkeys = test: Heart rate in vivo in rhesus monkeys after s.c. bolus; conditions: rhesus monkey, s.c. bolus up to 0.03 mg/kg
Experimental: Rhesus monkeys, 24 females with body weight around 4 to 8 kg, were randomized into 4 groups of n=6. The animals were restrained on a chair up to 4 hours after single subcutaneous administration of compounds, and then returned to their pens. Heart rates were measured using a Surgivet V3304 device. Values are expressed as means±SEM (n=6).

[6] = biological target: T3, human adrenergic Alpha1A (α1A AR) (Homo sapiens, UniProt P35348); test: Ca2+ FLIPR assay in human adrenergic Alpha1A CHO-K1 cell line (Test 1); type: cell-based; conditions: read-out: CHO cells EC50 α1A AR
T3 sequence (P35348 1-466): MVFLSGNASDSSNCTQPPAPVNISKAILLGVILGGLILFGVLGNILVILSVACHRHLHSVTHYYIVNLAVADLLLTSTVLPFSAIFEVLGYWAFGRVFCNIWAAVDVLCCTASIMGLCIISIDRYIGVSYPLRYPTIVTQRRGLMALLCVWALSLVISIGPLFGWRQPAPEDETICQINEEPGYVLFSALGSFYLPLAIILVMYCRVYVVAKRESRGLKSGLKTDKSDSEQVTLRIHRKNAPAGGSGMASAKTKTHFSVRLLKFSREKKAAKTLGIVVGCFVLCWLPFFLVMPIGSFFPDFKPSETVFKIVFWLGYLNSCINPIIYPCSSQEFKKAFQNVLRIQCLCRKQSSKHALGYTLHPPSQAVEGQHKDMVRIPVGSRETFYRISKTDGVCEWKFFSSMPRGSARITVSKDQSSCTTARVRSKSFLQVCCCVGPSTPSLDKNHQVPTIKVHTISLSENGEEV
Experimental: Compounds acting as agonists induce a transient increase of intracellular calcium. This was recorded on the FLIPR system. A measurement of the signal baseline was first recorded every second for 2 minutes before the injection of the compounds. […] Low controls (unstimulated cells) were determined with the addition of 5 μL of assay buffer.

For CCCCOc1ccc(CC(C)(C)NCC(O)c2cc(O)cc3[nH]c(=O)sc23)cc1 (racemic) [Compound A/B], the “Serotonin 5-HT2C Binding” value (human 5-HT2C receptor) was 1.7 µM, the pEC50 [1] was 7.60 and the pEC50 [2] was 7.96. For the same compound, the pEC50 [3] was 6.16.

Work on CCCCOc1ccc(CC(C)(C)NC[C@H](O)c2cc(O)cc3[nH]c(=O)sc23)cc1 [Compound A (R) acetate salt, (R)-7-(2-(1-(4-butoxyphenyl)-2-methylpropan-2-ylamino)-1-hydroxyethyl)-5-hydroxybenzo[d]thiazol-2(3H)-one acetate salt] yielded an Emax ([2]; CHO, read-out: CHO cells Emax % β2 AR, cAMP, compared to isoprenaline) of 91%.

For CCCCOc1ccc(CC(C)(C)NC[C@H](O)c2cc(O)cc3[nH]c(=O)sc23)cc1.O=C(O)CO [Compound A glycolate salt], the “solubility in H2O, Conc” value ([4]; pH 5.1) was 13100 µg/mL, the “solubility in H2O, Conc” value ([4]; pH 5.3) was 6390 µg/mL and the “solubility in H2O, Conc” value ([4]; pH 5.4) was 4470 µg/mL.

With CCCCOc1ccc(CC(C)(C)NC[C@H](O)c2cc(O)cc3[nH]c(=O)sc23)cc1 [Compound A, (R)-7-(2-(1-(4-butoxyphenyl)-2-methylpropan-2-ylamino)-1-hydroxyethyl)-5-hydroxybenzo[d]thiazol-2(3H)-one] the “solubility in H2O, Conc” value ([4]; pH 7.3) was under 10 µg/mL, the “solubility in H2O, Conc” value ([4]; pH 7.8) was under 10 µg/mL and the “skeletal muscle mass and heart mass increase (FIG. 1)” value (Male Wistar Han IGS rats) was “induces skeletal muscle hypertrophy with minimum impact on heart mass”. For the same compound, the pEC50 ([5]; Cavia porcellus, guinea pig left atria, n = 2) was under 5.00, the “effects on left atrium contraction” value ([5]; up to 10 μM) was “no effects” and the heart rate increase (Wistar Han rats) was “less heart rate increases compared to formoterol”. For the same compound, the heart rate increase (Rhesus monkeys) was “less heart rate increase compared to formoterol” and the “Serotonin 5-HT2C Binding” value (human 5-HT2C receptor) was 11 µM.

For CCCCOc1ccc(CC(C)(C)NC[C@@H](O)c2cc(O)cc3[nH]c(=O)sc23)cc1 [Compound B (S)], the pEC50 [6] was under 4.52, the “Serotonin 5-HT2C Binding” value (human 5-HT2C receptor) was 0.8 µM and the pEC50 [1] was 7.71. It also gave a pEC50 [2] of 6.02 and a pEC50 [3] of under 5.00.
